System: zebrafish (Danio rerio) AB strain embryos
Experiment: Acute toxicity testing using zebrafish embryos (mortality after 48 hr exposure)
Type: in vivo
Settings: positive control, 3.7 mg/L; 48 hr exposure at 26° C.
Protocol: Extracts prepared as described in Example 1 were tested for acute toxicity using zebrafish (Danio rerio) AB strain embryos. BB cream extracts were diluted into zebrafish embryo culture medium at nominal concentrations of 0.3, 0.6, 1.4, 3.0 and 6.7 g/L. Zebrafish AB strain embryos of 4-128 cell stages were exposed to extract dilutions in a 96-well plate at 1 embryo per well. Each concentration was tested with 20 embryos. Zebrafish embryo culture medium and 3.7 mg/L dichloroaniline were included as negative and positive controls, respectively. After 48 hr exposure at 26° C., zebrafish embryos were observed under a stereomicroscope and fish embryos that were coagulated, tail not detached, and having no heart beat were marked as dead. Mortality rate for each concentration was calculated as the acute toxicity endpoint. The mortality rate for the negative control was 0% and for the positive control was 30%. […] Of the three BB cream extracts, brand C was the most toxic and brand B was the least toxic to zebrafish embryos.

## Nc1ccc(Cl)c(Cl)c1 [dichloroaniline]
  mortality rate: 30%

Source: patent publication US20170356900A1, “TOXICANT ASSAYS FOR COSMETIC PRODUCTS” (priority 2016, published 2017)
